ChEMBL document CHEMBL4387706, “Discovery of Novel Spiroindoline Derivatives as Selective Tankyrase Inhibitors” (J Med Chem, 2019)
Converted amounts (≈) assume the structure as drawn.

What was measured:
[1] = tested on: COLO 320DM; test: cells; conditions: Homo sapiens, 96 h
Description: Antiproliferative activity against human COLO320DM cells assessed as inhibition of cell growth measured after 4 days by CellTiter-Glo assay

[2] = target: T1, Tankyrase 1/2 (Homo sapiens, UniProt Q9H2K2+O95271)
T1 sequence (Q9H2K2 whole entry): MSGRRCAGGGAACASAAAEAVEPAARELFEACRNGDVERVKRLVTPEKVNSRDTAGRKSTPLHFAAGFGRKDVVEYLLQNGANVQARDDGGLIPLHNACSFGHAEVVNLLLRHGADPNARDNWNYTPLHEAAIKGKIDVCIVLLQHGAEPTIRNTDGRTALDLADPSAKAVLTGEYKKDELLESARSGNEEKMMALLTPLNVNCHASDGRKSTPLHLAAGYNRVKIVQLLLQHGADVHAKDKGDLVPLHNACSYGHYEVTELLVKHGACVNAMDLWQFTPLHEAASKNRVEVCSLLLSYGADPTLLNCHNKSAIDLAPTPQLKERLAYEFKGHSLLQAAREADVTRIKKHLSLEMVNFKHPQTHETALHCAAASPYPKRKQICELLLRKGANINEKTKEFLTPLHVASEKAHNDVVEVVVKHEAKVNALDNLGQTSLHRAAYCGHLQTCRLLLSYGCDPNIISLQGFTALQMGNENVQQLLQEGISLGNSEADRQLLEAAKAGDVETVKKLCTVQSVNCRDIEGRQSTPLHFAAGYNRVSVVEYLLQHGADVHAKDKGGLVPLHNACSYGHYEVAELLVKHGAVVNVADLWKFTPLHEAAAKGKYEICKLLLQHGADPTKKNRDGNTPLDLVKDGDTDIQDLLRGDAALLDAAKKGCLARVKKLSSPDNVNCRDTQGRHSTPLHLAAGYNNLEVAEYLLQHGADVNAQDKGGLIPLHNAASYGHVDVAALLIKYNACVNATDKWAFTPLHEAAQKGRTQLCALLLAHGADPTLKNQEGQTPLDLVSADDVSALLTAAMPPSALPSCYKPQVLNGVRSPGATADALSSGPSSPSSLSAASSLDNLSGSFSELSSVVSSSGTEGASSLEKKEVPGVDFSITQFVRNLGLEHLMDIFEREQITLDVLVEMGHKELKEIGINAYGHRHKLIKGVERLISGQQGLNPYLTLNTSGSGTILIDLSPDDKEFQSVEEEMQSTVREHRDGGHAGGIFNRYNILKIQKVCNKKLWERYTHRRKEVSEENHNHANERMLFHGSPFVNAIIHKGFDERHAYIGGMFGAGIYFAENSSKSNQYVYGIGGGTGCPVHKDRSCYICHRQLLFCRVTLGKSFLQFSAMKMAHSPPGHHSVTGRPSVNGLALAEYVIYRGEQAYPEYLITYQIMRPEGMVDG
T1 sequence (O95271 whole entry): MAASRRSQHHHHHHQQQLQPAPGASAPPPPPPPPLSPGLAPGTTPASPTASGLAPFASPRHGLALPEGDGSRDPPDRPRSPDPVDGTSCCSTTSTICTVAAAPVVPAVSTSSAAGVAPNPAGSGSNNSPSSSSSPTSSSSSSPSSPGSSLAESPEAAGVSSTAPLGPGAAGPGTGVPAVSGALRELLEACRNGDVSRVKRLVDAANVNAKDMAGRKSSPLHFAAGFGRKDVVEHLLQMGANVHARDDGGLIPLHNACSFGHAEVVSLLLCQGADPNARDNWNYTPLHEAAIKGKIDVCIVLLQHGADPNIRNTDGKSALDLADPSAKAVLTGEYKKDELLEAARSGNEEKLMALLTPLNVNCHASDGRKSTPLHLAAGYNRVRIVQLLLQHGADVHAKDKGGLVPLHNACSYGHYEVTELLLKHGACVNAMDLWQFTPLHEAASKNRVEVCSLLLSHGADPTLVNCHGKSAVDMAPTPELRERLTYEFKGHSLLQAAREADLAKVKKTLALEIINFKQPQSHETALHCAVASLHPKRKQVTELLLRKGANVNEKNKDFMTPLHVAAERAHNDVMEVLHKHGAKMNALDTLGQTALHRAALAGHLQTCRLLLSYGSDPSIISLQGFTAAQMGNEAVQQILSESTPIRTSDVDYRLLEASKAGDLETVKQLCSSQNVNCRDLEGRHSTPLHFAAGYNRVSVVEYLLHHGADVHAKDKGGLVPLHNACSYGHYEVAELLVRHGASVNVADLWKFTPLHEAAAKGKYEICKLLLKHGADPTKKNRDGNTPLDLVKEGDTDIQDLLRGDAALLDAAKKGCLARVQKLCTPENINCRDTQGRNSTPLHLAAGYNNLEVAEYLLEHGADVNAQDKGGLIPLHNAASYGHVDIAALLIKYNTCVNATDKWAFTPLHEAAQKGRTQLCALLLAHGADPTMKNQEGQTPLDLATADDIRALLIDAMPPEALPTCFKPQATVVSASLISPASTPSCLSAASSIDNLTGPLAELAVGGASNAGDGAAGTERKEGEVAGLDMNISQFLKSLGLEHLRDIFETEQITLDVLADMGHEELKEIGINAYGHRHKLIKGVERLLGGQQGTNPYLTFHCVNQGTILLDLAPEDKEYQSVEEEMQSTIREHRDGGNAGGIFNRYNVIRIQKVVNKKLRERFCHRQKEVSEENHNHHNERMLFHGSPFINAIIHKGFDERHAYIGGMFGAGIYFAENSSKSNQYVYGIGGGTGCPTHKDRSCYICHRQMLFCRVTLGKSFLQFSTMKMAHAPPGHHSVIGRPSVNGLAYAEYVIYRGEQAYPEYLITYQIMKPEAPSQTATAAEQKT
Description: Inhibition of TNKS/TNKS2 (unknown origin) expressed in human DLD1 cells assessed as reduction in Wnt-signaling measured after 24 hrs by TCF-luciferase reporter gene assay

[3] = physchem; conditions: phosphate buffer, pH 7.4
[4] = target: T2, Poly [ADP-ribose] polymerase tankyrase-1 (Homo sapiens, UniProt O95271)
T2 sequence (O95271 whole entry): T1 sequence (O95271 whole entry)
Description: Inhibition of recombinant human N-terminal TEV cleavage site-fused/FLAG-poly his-tagged TNKS SAM-PARP domain (1024 to 1327 residues) expressed in Escherichia coli assessed as reduction in auto-PARylation preincubated for 10 mins followed by biotinylated-NAD+ addition and measured after 45 mins by ELISA

[5] = target: Poly [ADP-ribose] polymerase 1 (Homo sapiens, UniProt P09874)
Description: Inhibition of recombinant human PARP1 expressed in Escherichia coli assessed as reduction in auto-PARylation using histone as substrate measured after 45 mins in presence of biotinylated-NAD+ by ELISA

[6] = target: T3, Poly [ADP-ribose] polymerase tankyrase-2 (Homo sapiens, UniProt Q9H2K2)
T3 sequence (Q9H2K2 whole entry): T1 sequence (Q9H2K2 whole entry)
Description: Inhibition of recombinant human N-terminal TEV cleavage site-fused/FLAG-poly his-tagged TNKS2 SAM-PARP domain (613 to 1166 residues) expressed in Escherichia coli assessed as reduction in auto-PARylation preincubated for 10 mins followed by biotinylated-NAD+ addition and measured after 45 mins by ELISA

[7] = in vitro; conditions: mouse, liver microsomes
Description: Stability in mouse liver microsomes assessed as parent compound remaining at 1 uM measured after 30 mins in presence of NADPH by LC-MS/MS analysis

[8] = in vitro; conditions: human, liver microsomes
Description: Stability in human liver microsomes assessed as parent compound remaining at 1 uM measured after 30 mins in presence of NADPH by LC-MS/MS analysis

Poly [ADP-ribose] polymerase 1, sequence (P09874 whole entry): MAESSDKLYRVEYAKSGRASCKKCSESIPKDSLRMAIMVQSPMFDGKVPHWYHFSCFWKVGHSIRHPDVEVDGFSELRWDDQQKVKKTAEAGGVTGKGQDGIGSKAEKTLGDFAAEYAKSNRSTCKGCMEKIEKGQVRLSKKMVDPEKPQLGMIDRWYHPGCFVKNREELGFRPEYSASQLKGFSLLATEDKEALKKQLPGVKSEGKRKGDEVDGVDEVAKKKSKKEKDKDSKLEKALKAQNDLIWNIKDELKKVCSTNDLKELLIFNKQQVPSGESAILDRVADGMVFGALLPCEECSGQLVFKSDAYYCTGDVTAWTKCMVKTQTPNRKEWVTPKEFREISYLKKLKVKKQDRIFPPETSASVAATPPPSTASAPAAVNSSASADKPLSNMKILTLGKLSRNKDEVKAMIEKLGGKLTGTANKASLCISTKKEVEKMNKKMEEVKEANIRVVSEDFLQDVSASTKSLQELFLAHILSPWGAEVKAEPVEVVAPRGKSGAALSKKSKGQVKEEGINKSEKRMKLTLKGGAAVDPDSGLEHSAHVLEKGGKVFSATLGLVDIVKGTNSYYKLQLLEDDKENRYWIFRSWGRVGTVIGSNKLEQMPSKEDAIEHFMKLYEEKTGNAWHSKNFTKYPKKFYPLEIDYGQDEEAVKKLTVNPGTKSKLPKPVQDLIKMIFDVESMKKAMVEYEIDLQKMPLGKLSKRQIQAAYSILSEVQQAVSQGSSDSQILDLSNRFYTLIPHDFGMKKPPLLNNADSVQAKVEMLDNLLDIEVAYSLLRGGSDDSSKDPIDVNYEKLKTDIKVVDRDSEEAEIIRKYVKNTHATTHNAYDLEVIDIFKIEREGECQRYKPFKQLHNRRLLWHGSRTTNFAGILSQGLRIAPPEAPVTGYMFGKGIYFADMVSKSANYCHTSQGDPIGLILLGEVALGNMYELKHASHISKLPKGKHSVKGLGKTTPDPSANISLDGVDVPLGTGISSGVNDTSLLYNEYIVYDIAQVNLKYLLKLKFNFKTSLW

GI50 [1]	IC50 [2]	solubility at 1 h, 200 µM [3]	IC50 [4]	IC50 [5]	IC50 [6]	remaining at 0.5 h, 1 µM [7]	remaining at 0.5 h, 1 µM [8]	Structure (SMILES)
3.8 µM	0.0232 µM	0.5 µg/mL (≈ 1.39 µM)	0.0025 µM	> 20 µM	0.0023 µM	–	–	COc1ccccc1N1CCN(c2nc3c(c(=O)[nH]2)CSCC3)CC1
6.3 µM	1.161 µM	14.2 µg/mL (≈ 42.1 µM)	0.035 µM	> 20 µM	0.0497 µM	91.7%	99.3%	COc1ccccc1C1=CCN(c2nc3c(c(=O)[nH]2)CCCC3)CC1
> 20 µM	> 10 µM	8.8 µg/mL (≈ 23.5 µM)	6.17 µM	> 20 µM	5.34 µM	–	–	COc1ccccc1N1CCN(c2nc3c(c(=O)[nH]2)C[S+]([O-])CC3)CC1 (stereo not drawn)
> 50 µM	> 10 µM	1.17 µg/mL (≈ 3.33 µM)	0.0302 µM	> 20 µM	0.0183 µM	0.1%	28.1%	O=C1Oc2ccccc2C12CCN(c1nc3c(c(=O)[nH]1)CCCC3)CC2
> 50 µM	0.114 µM	0.9 µg/mL (≈ 2.51 µM)	0.0034 µM	> 20 µM	0.0026 µM	–	–	COc1ccc(N2CCN(c3nc4c(c(=O)[nH]3)CSCC4)CC2)cc1
22.4 µM	1.605 µM	67 µg/mL (≈ 199 µM)	0.118 µM	> 20 µM	0.0293 µM	–	–	O=c1[nH]c(N2CCC3(CC2)NCc2ccccc23)nc2c1CCCC2
> 20 µM	2.246 µM	6 µg/mL (≈ 17.5 µM)	0.22 µM	> 20 µM	0.148 µM	–	–	COc1ccc(N2CCN(c3nc4c(c(=O)[nH]3)COCC4)CC2)cc1
15.5 µM	0.403 µM	0.8 µg/mL (≈ 2.13 µM)	0.0194 µM	> 20 µM	0.0655 µM	–	–	COc1ccccc1N1CCN(c2nc3c(c(=O)[nH]2)CC(F)(F)CC3)CC1
11.2 µM	0.591 µM	64.2 µg/mL (≈ 183 µM)	0.0276 µM	> 20 µM	0.0251 µM	0%	84.3%	O=C1Nc2ccccc2C12CCN(c1nc3c(c(=O)[nH]1)CCCC3)CC2
17.1 µM	1.009 µM	12.3 µg/mL (≈ 35.9 µM)	0.0676 µM	> 20 µM	0.112 µM	–	–	COc1ccccc1N1CCN(c2nc3c(c(=O)[nH]2)COCC3)CC1
4.6 µM	0.531 µM	1 µg/mL (≈ 2.95 µM)	0.0654 µM	> 20 µM	0.0676 µM	0%	62.1%	COc1ccccc1C1CCN(c2nc3c(c(=O)[nH]2)CCCC3)CC1
7.4 µM	0.148 µM	1.7 µg/mL (≈ 4.74 µM)	0.0062 µM	> 20 µM	0.0048 µM	–	–	COc1cccc(N2CCN(c3nc4c(c(=O)[nH]3)CSCC4)CC2)c1
14.2 µM	1.066 µM	5.2 µg/mL (≈ 15.3 µM)	0.0394 µM	> 20 µM	0.0397 µM	–	–	COc1cccc(N2CCN(c3nc4c(c(=O)[nH]3)CCCC4)CC2)c1
> 20 µM	1.971 µM	1.1 µg/mL (≈ 2.92 µM)	0.0796 µM	> 20 µM	0.0364 µM	–	–	COc1ccc(N2CCN(c3nc4c(c(=O)[nH]3)CC(F)(F)CC4)CC2)cc1
13.1 µM	0.352 µM	1.6 µg/mL (≈ 4.76 µM)	0.0285 µM	> 20 µM	0.0207 µM	34.7%	77.9%	O=c1[nH]c(N2CCC3(CC2)CNc2ccccc23)nc2c1CCCC2
10.8 µM	0.608 µM	0.67 µg/mL (≈ 1.99 µM)	0.0434 µM	> 20 µM	0.0146 µM	0.1%	64.3%	O=c1[nH]c(N2CCC3(CC2)COc2ccccc23)nc2c1CCCC2
> 20 µM	1.294 µM	4.6 µg/mL (≈ 13.5 µM)	0.035 µM	> 20 µM	0.0455 µM	–	–	COc1ccc(N2CCN(c3nc4c(c(=O)[nH]3)CCCC4)CC2)cc1
97.7 µM	> 10 µM	70.1 µg/mL (≈ 200 µM)	0.514 µM	> 20 µM	0.258 µM	–	–	O=C1NC2(CCN(c3nc4c(c(=O)[nH]3)CCCC4)CC2)c2ccccc21
15 µM	0.369 µM	62.9 µg/mL (≈ 171 µM)	0.011 µM	–	0.012 µM	–	–	O=C1Nc2cc(F)ccc2C12CCN(c1nc3c(c(=O)[nH]1)CCCC3)CC2
4.2 µM	0.0439 µM	0.8 µg/mL (≈ 2.07 µM)	0.0064 µM	–	0.0075 µM	–	–	O=C1Nc2cc(F)cc(F)c2C12CCN(c1nc3c(c(=O)[nH]1)CCCC3)CC2
41.9 µM	9.144 µM	69.6 µg/mL (≈ 196 µM)	6.01 µM	> 20 µM	–	–	–	COc1ccccc1N1CCCN(c2nc3c(c(=O)[nH]2)CCCC3)CC1
4.9 µM	0.247 µM	2.6 µg/mL (≈ 7.01 µM)	0.0064 µM	–	0.0053 µM	–	–	O=c1[nH]c(N2CCC3(CC2)CNc2cccc(Cl)c23)nc2c1CCCC2
5.8 µM	0.342 µM	1.07 µg/mL (≈ 3.17 µM)	0.0315 µM	> 20 µM	0.0357 µM	0%	76.3%	O=c1[nH]c(N2CCC3(CC2)OCc2ccccc23)nc2c1CCCC2
